In patent EP4583874B1, “MULTITARGET NUCLEAR RECEPTOR LIGANDS BASED ON 2-(4-(QUINOLIN-2-YLOXY)PHENOXY)PROPANOIC ACID AND 2-(4-(QUINOXALIN-2-YLOXY)PHENOXY)PROPANOIC ACID FOR THE TREATMENT OF METABOLIC AND LIVER DISEASES” (CHARLES UNIVERSITY, FACULTY OF PHARMACY IN HRADEC KRALOVE, priority 2022, dated 2024):
Where two headings read alike, the source gives them in different places.

Key:
Format in all cases: cell-based
human PPARα = target: T1, human PPARα (Homo sapiens, UniProt Q07869); assay: PPARα responsive luciferase reporter gene assay (pGAL4-PPARα / pGL5-UAS 9x) in HepG2 cells; conditions: relative activation to fenofibrate 10 µM (100%), HepG2, 24 h, negative value indicates inverse agonism
T1 construct: DNA constructs encoding human LBD domains of human PPARα, PPARγ, of LXRα (pGAL4-PPARα, pGAL4-PPARγ, pGAL4-LXRα); expressed in transfected cells; host or cells: HepG2
T1 sequence (Q07869 239-466 limits assumed): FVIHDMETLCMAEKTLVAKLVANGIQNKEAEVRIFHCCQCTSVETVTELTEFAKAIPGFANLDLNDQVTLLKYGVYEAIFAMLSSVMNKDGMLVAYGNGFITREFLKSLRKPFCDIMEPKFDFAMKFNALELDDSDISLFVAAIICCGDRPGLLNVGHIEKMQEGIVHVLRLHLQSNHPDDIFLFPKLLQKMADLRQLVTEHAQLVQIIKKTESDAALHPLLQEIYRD
From the text: Bezafibrate, GW7647 and WY14643 are known PPARα ligands. […] GW3965 is known high-affinity LXRα ligand. […]
(§1) In HepG2 cells, luciferase gene reporter assays have been performed with the transiently transfected reporter gene luciferase construct with the UAS yeast binding site interacting with GAL4 protein (pGL5-UAS 9x, Promega). DNA constructs encoding human LBD domains of human PPARα, PPARγ, of LXRα (pGAL4-PPARα, pGAL4-PPARγ, pGAL4-LXRα) have been cotransfected with the reporter construct. For FXR, FXRE-luc construct with FXR response elements upstream of Firefly luciferase has been used together with an expression construct for human FXR for HepG2 cells transfection. HepG2 cells were then treated with compounds of the invention for 24 h.

human FXR = target: T2, human FXR (Homo sapiens, UniProt Q96RI1); assay: FXR responsive luciferase reporter gene assay (FXRE-luc + human FXR expression construct) in HepG2 cells; conditions: HepG2, 24 h
T2 construct: expressed in transfected cells; host or cells: HepG2
T2 sequence (Q96RI1 1-486): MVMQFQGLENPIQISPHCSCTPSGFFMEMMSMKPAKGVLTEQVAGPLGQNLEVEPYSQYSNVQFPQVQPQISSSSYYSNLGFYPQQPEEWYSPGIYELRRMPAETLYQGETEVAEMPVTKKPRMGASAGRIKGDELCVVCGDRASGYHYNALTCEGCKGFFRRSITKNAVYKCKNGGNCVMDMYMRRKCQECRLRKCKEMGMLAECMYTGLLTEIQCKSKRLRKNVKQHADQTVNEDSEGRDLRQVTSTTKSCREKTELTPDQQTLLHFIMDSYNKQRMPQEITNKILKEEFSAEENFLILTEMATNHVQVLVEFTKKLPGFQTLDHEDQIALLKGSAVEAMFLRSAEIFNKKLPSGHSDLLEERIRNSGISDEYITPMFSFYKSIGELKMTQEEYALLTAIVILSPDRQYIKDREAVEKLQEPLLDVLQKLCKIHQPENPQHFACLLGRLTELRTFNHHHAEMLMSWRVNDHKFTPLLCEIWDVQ
From the text: as §1

human LXRα = target: T3, human LXRα (Homo sapiens, UniProt Q13133); assay: LXRα luciferase reporter gene assay, inhibition of activation by GW3965 (pGAL4-LXRα / pGL5-UAS 9x) in HepG2 cells
T3 construct: DNA constructs encoding human LBD domains of human PPARα, PPARγ, of LXRα (pGAL4-PPARα, pGAL4-PPARγ, pGAL4-LXRα); expressed in transfected cells; host or cells: HepG2
T3 sequence (Q13133 209-447 limits assumed): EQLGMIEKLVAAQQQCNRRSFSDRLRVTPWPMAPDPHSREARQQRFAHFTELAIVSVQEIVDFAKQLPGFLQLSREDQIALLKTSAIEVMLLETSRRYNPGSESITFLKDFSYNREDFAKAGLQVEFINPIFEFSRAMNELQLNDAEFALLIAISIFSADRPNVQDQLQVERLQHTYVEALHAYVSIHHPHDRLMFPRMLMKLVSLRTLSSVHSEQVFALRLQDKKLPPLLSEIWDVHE
Procedure: Bezafibrate, GW7647 and WY14643 are known PPARα ligands. […] GW3965 is known high-affinity LXRα ligand.
Inverse agonistic/antagonistic activities of tested compounds to LXRα receptor activated by the LXRα agonist GW3965(10 µM). […] Negative value indicates inverse agonism.
as §1

human PPARγ = target: T4, human PPARγ (Homo sapiens, UniProt P37231); assay: PPARγ luciferase reporter gene assay (pGAL4-PPARγ / pGL5-UAS 9x) in HepG2 cells; conditions: HepG2, 24 h
T4 construct: DNA constructs encoding human LBD domains of human PPARα, PPARγ, of LXRα (pGAL4-PPARα, pGAL4-PPARγ, pGAL4-LXRα); expressed in transfected cells; host or cells: HepG2
T4 sequence (P37231 238-503 limits assumed): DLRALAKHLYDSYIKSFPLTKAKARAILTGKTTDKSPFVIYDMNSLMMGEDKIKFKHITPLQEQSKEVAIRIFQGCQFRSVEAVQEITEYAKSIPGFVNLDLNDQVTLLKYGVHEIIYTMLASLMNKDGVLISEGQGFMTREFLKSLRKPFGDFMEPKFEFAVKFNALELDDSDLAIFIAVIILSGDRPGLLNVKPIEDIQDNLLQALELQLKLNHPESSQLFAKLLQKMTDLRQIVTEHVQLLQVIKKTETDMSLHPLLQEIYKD

TGR5 = target: T5, TGR5 (Homo sapiens, UniProt Q8TDU6); assay: TGR5 luciferase reporter assay; conditions: relative activation to LCA 10 µM (100%), negative value indicates inverse agonism
T5 sequence (Q8TDU6 1-330): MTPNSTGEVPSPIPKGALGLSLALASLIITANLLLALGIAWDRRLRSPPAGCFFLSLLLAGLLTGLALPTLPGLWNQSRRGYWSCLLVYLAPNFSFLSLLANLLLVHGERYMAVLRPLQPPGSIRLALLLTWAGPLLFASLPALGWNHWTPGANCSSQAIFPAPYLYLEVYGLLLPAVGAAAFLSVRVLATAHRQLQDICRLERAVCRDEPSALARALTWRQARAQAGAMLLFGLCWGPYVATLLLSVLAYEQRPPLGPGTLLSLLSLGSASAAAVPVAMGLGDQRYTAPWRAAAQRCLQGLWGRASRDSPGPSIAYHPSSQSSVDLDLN

[1] = HepG2, 24 h; read-out: LXRα antagonism

Compound | Emax at 10 µM (human PPARα) [%] | Emax at 10 µM (human FXR) [%] | inhibition at 10 µM (human LXRα; [1]) [%] | Emax at 10 µM (human PPARγ) [%] | Emax at 10 µM (TGR5) [%] | inhibition at 10 µM (human LXRα; HepG2, 24 h, read-out: LXRα antagonism) [%]
C[C@@H](Oc1ccc(Oc2ccc3cc(Cl)ccc3n2)cc1)C(=O)O [compound 36, (R)-2-(4-((6-Chloroquinolin-2-yl)oxy)phenoxy)propanoic acid] | -5 | 19 | 36 | 23 | – | –
C[C@@H](Oc1ccc(Oc2ccc3c(Cl)cc(Cl)cc3n2)cc1)C(=O)O [compound 38, (R)-2-(4-((5,7-Dichloroquinolin-2-yl)oxy)phenoxy)propanoic acid] | 0 | 14 | 41 | 1 | 2 | –
C[C@@H](Oc1ccc(Oc2ccc3ccc(Br)cc3n2)cc1)C(=O)O [compound 39, (R)-2-(4-((7-Bromoquinolin-2-yl)oxy)phenoxy)propanoic acid] | 87 | 4 | 43 | 3 | 6 | –
C[C@@H](Oc1ccc(Oc2ccc3ccc(F)cc3n2)cc1)C(=O)O [compound 41, (R)-2-(4-((7-Fluoroquinolin-2-yl)oxy)phenoxy)propanoic acid] | 1 | 1 | – | 7 | – | –
C[C@@H](Oc1ccc(Oc2ccc3c(C(F)(F)F)cccc3n2)cc1)C(=O)O [compound 43, (R)-2-(4-((5-(Trifluoromethyl)quinolin-2-yl)oxy)phenoxy)propanoic acid] | -5 | 1 | 48 | -1 | – | –
CCc1ccc2ccc(Oc3ccc(O[C@H](C)C(=O)O)cc3)nc2c1 [compound 44, (R)-2-(4-((7-Ethylquinolin-2-yl)oxy)phenoxy)propanoic acid] | 0 | 15 | 7 | 4 | – | –
Cc1cc(C)c2ccc(Oc3ccc(O[C@H](C)C(=O)O)cc3)nc2c1 [compound 45, (R)-2-(4-((5,7-Dimethylquinolin-2-yl)oxy)phenoxy)propanoic acid] | 0 | 7 | 43 | 17 | – | –
C[C@@H](Oc1ccc(Oc2ccc3ccc([N+](=O)[O-])cc3n2)cc1)C(=O)O [compound 50, (R)-2-(4-((7-nitroquinolin-2-yl)oxy)phenoxy)propanoic acid] | 87 | 0 | – | – | – | –
CC(C)(Oc1ccc(Oc2ccc3ccc(Cl)cc3n2)cc1)C(=O)O [compound 55, 2-(4-((7-Chloroquinolin-2-yl)oxy)phenoxy)-2-methylpropanoic acid] | 1 | 0 | – | -2 | -15 | –
C[C@@H](Oc1ccc(Oc2cnc3ccccc3n2)cc1)C(=O)O [compound 62] | 0 | 7 | – | 2 | 43 | –
C[C@@H](Oc1ccc(Oc2cnc3ccc(Cl)cc3n2)cc1)C(=O)O [compound 63, (R)-2-(4-((7-Chloroquinoxalin-2-yl)oxy)phenoxy)propanoic acid] | 0 | -3 | – | 2 | 4 | –
C[C@@H](Oc1ccc(Oc2cnc3cc(Cl)ccc3n2)cc1)C(=O)O [compound 64, (R)-2-(4-((6-Chloroquinoxalin-2-yl)oxy)phenoxy)propanoic acid] | – | 1 | – | – | – | 17
C[C@@H](Oc1ccc(Oc2cnc3ccc(Br)cc3n2)cc1)C(=O)O [compound 65, (R)-2-(4-((7-Bromoquinoxalin-2-yl)oxy)phenoxy)propanoic acid] | 69 | -2 | – | 2 | -3 | –
Cc1ccc2ncc(Oc3ccc(O[C@H](C)C(=O)O)cc3)nc2c1 [compound 66, (R)-2-(4-((7-Methylquinoxalin-2-yl)oxy)phenoxy)propanoic acid] | 1 | -3 | – | 2 | – | –
C[C@@H](Oc1ccc(Oc2cnc3ccc(I)cc3n2)cc1)C(=O)O [compound 68, (R)-2-(4-((7-Iodoquinoxalin-2-yl)oxy)phenoxy)propanoic acid] | 49 | -3 | – | 9 | 11 | –
CC(=O)Nc1ccc2ncc(Oc3ccc(O[C@H](C)C(=O)O)cc3)nc2c1 [compound 69, (R)-2-(4-((7-Acetamidoquinoxalin-2-yl)oxy)phenoxy)propanoic acid] | 46 | 3 | – | 1 | – | –
COc1ccc2ncc(Oc3ccc(O[C@H](C)C(=O)O)cc3)nc2c1 [compound 70, (R)-2-(4-((7-Methoxyquinoxalin-2-yl)oxy)phenoxy)propanoic acid] | 10 | -2 | – | 0 | – | –
CC(=O)Nc1ccc2ncc(Oc3ccc(OCC(=O)O)cc3)nc2c1 [compound 73, 2-(4-((7-Acetamidoquinoxalin-2-yl)oxy)phenoxy)acetic acid] | 59 | 6 | – | 1 | 20 | –
CCOC(=O)[C@@H](C)Oc1ccc(Oc2ccc3c(Cl)cccc3n2)cc1 [compound 76, Ethyl (R)-2-(4-((5-chloroquinolin-2-yl)oxy)phenoxy)propanoate] | – | 25 | 51 | – | – | –
CC(Oc1ccc(Nc2cnc3ccc(Cl)cc3n2)cc1)C(=O)O (stereo not shown) [compound 80, 2-(4-((7-chloroquinoxalin-2-yl)amino)phenoxy)propanoic acid] | 0 | -1 | 66 | – | – | –
CC(Oc1ccc(NCc2ccc3c(Cl)cc(Cl)cc3n2)cc1)C(=O)O (stereo not shown) [compound 84, 2-(4-(((5,7-Dichloroquinolin-2-yl)methyl)amino)phenoxy)propanoic acid] | 0 | -2 | 5 | 1 | – | –
CCOC(=O)C(C)Oc1ccc(NCc2ccc3c(Cl)cccc3n2)cc1 (stereo not shown) [compound 85, Ethyl 2-(4-(((5-chloroquinolin-2-yl)methyl)amino)phenoxy)propanoate] | 1 | -1 | – | -6 | 30 | –
